Patent publication US5747495A, “Method for treating hypertension using pyrazolopyrimidine derivatives” (Maeda; Hiroshi, priority 1995, dated 1998)
Several values for one entry are separate records, joined by “and”; a condition that tells them apart may be missing. Equal entries are not always repeated.

Tests used:
[1] = tested on: tryptophan pyrolase; settings: Life Sci., 8, 843-851, 1969; cited from earlier work
[2] = biological target: xanthine oxidase derived from cow milk (Bos taurus, UniProt P80457); experiment: Inhibition of superoxide production by xanthine oxidase in vitro (lucigenin chemiluminescence); type: biochemical; settings: for Integral value of intensity of chemiluminescence/10 min: average of two measurements, without AHPP 5.2 × 10^6 count
xanthine oxidase derived from cow milk, sequence (P80457 whole entry): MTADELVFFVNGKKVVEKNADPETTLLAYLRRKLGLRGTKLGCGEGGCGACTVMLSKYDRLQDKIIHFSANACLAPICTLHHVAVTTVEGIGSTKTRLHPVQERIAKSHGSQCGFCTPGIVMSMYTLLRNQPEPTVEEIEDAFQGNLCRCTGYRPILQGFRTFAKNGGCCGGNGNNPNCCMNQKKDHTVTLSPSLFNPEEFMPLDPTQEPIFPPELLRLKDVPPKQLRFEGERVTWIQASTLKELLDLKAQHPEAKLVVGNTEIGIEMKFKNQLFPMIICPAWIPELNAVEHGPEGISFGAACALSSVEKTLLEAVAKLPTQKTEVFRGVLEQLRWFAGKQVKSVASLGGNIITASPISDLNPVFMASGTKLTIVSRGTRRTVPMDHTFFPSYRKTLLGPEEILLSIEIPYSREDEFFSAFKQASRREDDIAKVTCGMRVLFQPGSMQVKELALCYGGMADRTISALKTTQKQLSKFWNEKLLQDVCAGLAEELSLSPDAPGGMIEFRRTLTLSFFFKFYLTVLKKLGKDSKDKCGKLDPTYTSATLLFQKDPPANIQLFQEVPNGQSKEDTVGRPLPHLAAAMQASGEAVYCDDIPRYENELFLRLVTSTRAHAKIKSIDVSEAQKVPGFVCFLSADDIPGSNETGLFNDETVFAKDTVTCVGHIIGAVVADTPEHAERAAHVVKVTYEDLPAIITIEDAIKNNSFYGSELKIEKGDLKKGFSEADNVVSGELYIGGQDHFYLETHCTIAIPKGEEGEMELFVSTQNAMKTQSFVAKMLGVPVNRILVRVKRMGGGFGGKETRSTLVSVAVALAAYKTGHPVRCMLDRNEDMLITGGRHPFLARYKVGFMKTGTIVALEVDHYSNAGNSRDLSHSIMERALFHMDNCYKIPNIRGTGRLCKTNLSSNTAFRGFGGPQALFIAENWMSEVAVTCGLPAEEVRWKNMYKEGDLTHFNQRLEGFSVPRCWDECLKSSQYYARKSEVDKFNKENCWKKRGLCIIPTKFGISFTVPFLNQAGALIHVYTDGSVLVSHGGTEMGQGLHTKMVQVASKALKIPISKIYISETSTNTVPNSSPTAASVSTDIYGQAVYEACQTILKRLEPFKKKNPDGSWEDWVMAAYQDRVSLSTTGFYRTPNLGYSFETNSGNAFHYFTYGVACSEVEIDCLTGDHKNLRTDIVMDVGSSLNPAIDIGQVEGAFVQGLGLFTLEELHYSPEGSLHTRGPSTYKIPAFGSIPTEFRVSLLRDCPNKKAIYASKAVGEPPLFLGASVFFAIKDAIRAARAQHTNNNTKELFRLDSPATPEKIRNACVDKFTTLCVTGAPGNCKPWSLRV
Method: Inhibitory Effect of AHPP against Superoxide Production by Xanthine Oxidase In Vitro
Production of superoxide radicals was determined by measuring a chemiluminescence observed in 100 mM phosphate buffer (pH 7.4) containing 10 μmole/L lucigenin and […] xanthine in the presence of 20 U/ml of xanthine oxidase derived from cow milk. Further, the inhibition of superoxide generation by the AHPP was evaluated by addition of 0-100 μmole/L of AHPP into the reaction mixture.

[3] = tested on: xanthine dehydrogenase; settings: Yokohama Med. Bull., 29, 53-58, 1978; cited from earlier work
[4] = biological target: T1, cow milk xanthine oxidase (Bos taurus, UniProt P80457); experiment: Inhibition of uric acid production by xanthine oxidase in vitro; type: biochemical
T1 construct: in the presence of cow milk xanthine oxidase; from tissue; host or cells: cow milk
T1 sequence (P80457 whole entry): as above
Method: Inhibitory Effect of AHPP Against Uric Acid Production by Xanthine Oxidase In Vitro
Rate of uric acid production was determined by measuring the increase of an optical absorbance at 290 nm in 50 mM phosphate buffer solution (pH 7.5) containing 2.19-21.9 μmole/L of xanthine and 0-0.44 μmole/L AHPP in the presence of cow milk xanthine oxidase in the final concentration of 3.33 mU/ml. […] The inhibitory coefficient (Ki) of AHPP for xanthine oxidase was determined to be 0.2 μM, by an analysis of its reaction velocity kinetics.

[5] = tested on: xanthine oxidase; settings: J. Biol. Chem., 226, 993-1000, 1957; cited from earlier work
[6] = tested on: Rabbit Aortic Ring; experiment: Relaxation of phenylepherine-contracted rabbit aortic ring by acetylcholine in the presence of AHPP; design: species or system New Zealand White rabbit; settings: for Amount of acethylcholine required to inhibit 50% relaxation of aorta ring: 0.11 without AHPP
Method: Synergistic Vascular Relaxation Effect to Acetylcholine of Rabbit Aortic Ring by AHPP Aortic ring with a diameter of 5 mm was prepared from chest aorta of New Zealand White female rabbits with a body weight of 2.5-3.0 kg. The rings were surgically prepared and hanged into the organ bath containing 20 ml of Krebs solution, which was kept at 37° C. and supplemented with 95% O2 and 5% CO2, for determination of the tension. Aortic ring relaxation by […] acetylcholine was measured in the prescence of 0, 100, and 300 μmole/L of AHPP, after aortic ring contraction was induced by 0.15 μmole/L phenylepherine.

[7] = tested on: Spontaneously Hypertensive Rats; experiment: Mean arterial blood pressure of spontaneously hypertensive rats after intravenous injection; type: in vivo, rat; settings: 50 mg/kg, average of 8 rats
Method: Effect of Intravenous Injection of AHPP on the Blood Pressure of Spontaneously Hypertensive Rats
Eighteen weeks old spontaneously hypertensive 8 male rats weighing 300-400 g were intravenously infused with 50 mg/kg of AHPP in a solution dissolved in 1 ml of 0.1 M NaOH for 5 minutes (8 rats), and mean arterial blood pressure was measured under anesthesia. Eight control rats were received only 0.1 M NaOH by intravenous infusion.
Dose of AHPP. 50 mg/kg in rats. 0.33 mmol/ml, 1.0 ml/5 min. See text for details. Average value of 8 measurements ±SD.

[8] = tested on: Spontaneously Hypertensive Rats; experiment: Systolic blood pressure of spontaneously hypertensive rats after oral administration; type: in vivo, rat; settings: 100 mg/kg oral, 4 hours after treatment, male spontaneously hypertensive rats
Method: Effects of Oral Administration of AHpp on the Blood Pressure of Spontaneously Hypertensive Rats
Four male spontaneously hypertensive rats with a body weight of […] and 4 male rats with a body weight of 200-300 g were orally given with 100 mg/kg of AHPP and a systolic blood pressure in tail artery was examined 4 hours after the treatment. Systolic blood pressure of the treated group was reduced to 70% the value of before

SMILES: Nc1nc(O)nc2[nH]ncc12 [AHPP, 4-amino-6-hydroxypyrazolo [3,4-d]pyrimidine]
- inhibition of tryptophan pyrolase [1]: potent inhibitor
- inhibition of superoxide production by xanthine oxidase ([2]; 0-100 μmole/L AHPP, pH 7.4): inhibit superoxide production by xanthine oxidase in a dose-dependent manner
- Integral value of intensity of chemiluminescence/10 min ([2]; 1 μmole/L AHPP): 4.4 × 10^6 count
- Integral value of intensity of chemiluminescence/10 min ([2]; 10 μmole/L AHPP): 1.6 × 10^6 count
- inhibition of xanthine dehydrogenase [3]: potent inhibitor
- inhibition of uric acid production by xanthine oxidase ([4]; 0-0.44 μmole/L AHPP, pH 7.5): inhibited by AHPP in a dose-dependent manner
- Ki ([4]; pH 7.5, 2.19-21.9 μmole/L xanthine, 0-0.44 μmole/L AHPP, 3.33 mU/ml enzyme, read-out: inhibitory coefficient (Ki) for xanthine oxidase): 200 nM
- type of inhibition of xanthine oxidase ([4]; reaction velocity kinetics): competitive inhibition
- inhibition of xanthine oxidase [5]: potent inhibitor
- dose of phenylepherine required for 50% relaxation of phenylepherine-induced aortic ring contraction ([6]; 0, 100, and 300 μmole/L AHPP): reduced depending on the concentration of AHPP
- Amount of acethylcholine required to inhibit 50% relaxation of aorta ring ([6]; 100 μmole/L AHPP, contraction by 0.15 μmole/L phenylepherine, average of four measurements): 0.075
- Amount of acethylcholine required to inhibit 50% relaxation of aorta ring ([6]; 300 μmole/L AHPP, contraction by 0.15 μmole/L phenylepherine, average of four measurements): 0.055
- Mean arterial blood pressure (100% = preinjection value) ([7]; 5 min after iv, control 105.5 ± 7.5): 98.3 ± 2.7%
- Mean arterial blood pressure (100% = preinjection value) ([7]; 10 min after iv, control 107.3 ± 6.9): 92.2 ± 6.1%
- Mean arterial blood pressure (100% = preinjection value) ([7]; 15 min after iv, control 106.1 ± 6.3): 91.1 ± 5.6%
- Mean arterial blood pressure (100% = preinjection value) ([7]; 20 min after iv, control 105.0 ± 6.6): 86.9 ± 8.0%
- Mean arterial blood pressure (100% = preinjection value) ([7]; 30 min after iv, control 103.3 ± 4.2): 81.7 ± 5.0%
- Mean arterial blood pressure (100% = preinjection value) ([7]; 40 min after iv, control 100.5 ± 3.1): 77.7 ± 5.2%
- Mean arterial blood pressure (100% = preinjection value) ([7]; 50 min after iv, control 98.9 ± 3.3): 76.1 ± 7.2%
- Mean arterial blood pressure (100% = preinjection value) ([7]; 60 min after iv, control 97.5 ± 4.1): 73.5 ± 7.5%
- Mean arterial blood pressure (100% = preinjection value) ([7]; 70 min after iv, control 96.7 ± 5.0): 72.4 ± 6.6% and 72%
- Systolic blood pressure in tail artery, % of value before [8]: 70%

SMILES: CC(=O)OCC[N+](C)(C)C [acetylcholine, reference compound]
- EC50 ([6]; Oryctolagus cuniculus, 0 μmole/L AHPP, contraction by 0.15 μmole/L phenylepherine, average of four measurements, read-out: Amount of acethylcholine required to inhibit 50% relaxation of aorta ring): 110 nM
